Here are results for 3 compounds from PMC10149936, “Cofilin activation in pancreatic acinar cells plays a pivotal convergent role for mediating CCK-stimulated enzyme secretion and growth” (Frontiers in Physiology, 2023).

One assay deals with epithelial cells. The conditions noted are these: ref Matsubayashi et al., 2004; cited from earlier work.
Assay [1] relates to actin-cofilin interaction in fibroblasts. To be noted: ref Shoji et al., 2012; cited from earlier work.
Assay [2] has as its system cofilin-1 in epithelial cells. To be noted: micromolar concentrations, ref Zhang et al., 2018; cited from earlier work. On the procedure: (Figures 11, 12) CCK-8 stimulates pancreatic growth in addition to being a physiological regulator of pancreatic enzyme secretion ([Jensen, 1994]; [Dufresne et al., 2006]) The activation of p44/42 MAPK by CCK-8 is an important signaling step in mediating its growth effects ([Dufresne et al., 2006]). Therefore, to study the possible role of cofilin in the activation of p44/42 MAPK in pancreatic acini, we examined the effect on cofilin activation of preincubation with two cofilin inhibitors (Cytochalasin D, Paclitaxel). (Figure 11) ([Shoji et al., 2012]; [Zhang et al., 2018]). The concentrations ...

The test system of assay [3] is p44/42 MAPK in pancreatic acini. Put plainly: p44/42 MAPK activation (pT202/Y204 Western blot) in pancreatic acini. The conditions noted are these: Rattus norvegicus, Cytochalasin D 10 µM or Paclitaxel 5 µM, 3 h, range. It counts as cell-based. On the procedure:
Pancreatic acini preparations were obtained by collagenase digestion as previously described ([Bissonnette et al., 1984]; [Sato et al., 1989]; [Ramos-Alvarez and Jensen, 2018]). […] Isolated acini and CCK1-R/Panc-1 cells (M&M 2.2.1) were also preincubated with two SSH1 inhibitors, D3 (25 μM, 1 h) ([Li et al., 2015]) or SE (50 μM, 3 h for acini; 24 h for CCK1-R/Panc-1 cells) ([Lee et al., 2017]). After preincubation, 1 mL aliquots of dispersed acini were incubated at 37°C for 3–15 min with CCK-8 (0.3 nM or 100 nM), for 5–15 min with TPA (1 µM) or without stimulants, used as control. Cells were lysed in lysis buffer (50 mM Tris/HCl pH 7.5, 150 mM NaCl, 1% Triton X-100, 1% deoxycholate, 0.1% sodium azide, 1 mM EGTA, 0.4 mM EDTA, 0.2 mM sodium orthovanadate, 1 mM PMSF, and one protease inhibitor tablet per 10 mL). After sonication, lysates were centrifuged at 10,000×g for 15 min at 4°C and protein concentration was measured using the Bio-Rad protein assay reagent. Finally, cells were processed as below for Western blotting.
Western blotting and immunoprecipitation were performed as described previously ([Ramos-Alvarez and Jensen, 2018]). Whole cell lysates were subjected to SDS-PAGE using 4%–20% Tris–Glycine gels. […] The intensity of the protein bands was measured using GeneTools software from Syngene, which were assessed in the linear detection range. […]
In general terms: In western blotting, separated proteins are transferred to a membrane and probed.

Assay [4] deals with cofilin / PP1 association. Put plainly: co-immunoprecipitation of cofilin with PP1 in pancreatic acini. The class given is cell-based, rat. The conditions noted are these: CCK-8 100 nM, 3 min. On the procedure: For co-immunoprecipitation, 600 μg of protein was incubated with 15 μL of the anti-cofilin antibody (Santa Cruz Biotechnology, Inc. Dallas, TX) and 25 μL of protein A/G agarose beads (Thermo-Fisher Scientific. Waltham, MA) overnight at 4°C under agitation. Samples were washed three times with lysis buffer, re-suspended in 12.5 μL of Sample Buffer, Laemlii 2x concentrate and boiled for 5 min before western blotting.
FIGURE 6 Effect of CCK-8 (100 nM) to alter co-immunoprecipitation of cofilin with total PP2A (A) or PP1 (B). Isolated pancreatic acini were incubated in the absence or presence of CCK-8 (100 nM) for 3 min and then lysed. Equal amounts of protein were co-immunoprecipitated with an anti-cofilin (Santa Cruz, SC-376476) and then subjected to Western blots using anti-PP2A and anti-PP1. Bands were visualized using chemiluminescence and quantified by densitometry. Top: Results of a representative blot of four independent experiments are shown. Bottom: Means ± S.E. of at least 4 independent experiments. Results are expressed as % of basal stimulation of the control group. N.S., No significant. […] Lysates were analyzed using cofilin (pS3), Total cofilin, PP2A (pY307), Total PP2A, PP1(pT320), Total PP1 and tubulin. […]

Read-outs that look alike come from different tables or passages of the source.

`C=C1[C@@H](C)[C@H]2[C@H](Cc3ccccc3)NC(=O)[C@]23[C@H](OC(C)=O)/C=C/[C@@](C)(O)C(=O)[C@@H](C)C/C=C/[C@H]3[C@@H]1O` [Cytochalasin D]: the “effect on cell migration” value in the assay on epithelial cells is reported as “completely blocked cell migration”. For the same compound, the “effect on interaction between actin and cofilin” value in assay [1] was “inhibits the interaction between actin and cofilin”.
For the compound `CC(=O)O[C@H]1C(=O)[C@@]2(C)[C@H]([C@H](OC(=O)c3ccccc3)[C@]3(O)C[C@H](OC(=O)[C@H](O)[C@@H](NC(=O)c4ccccc4)c4ccccc4)C(C)=C1C3(C)C)[C@]1(OC(C)=O)CO[C@@H]1C[C@@H]2O` [Paclitaxel], the “effect on cofilin-1 expression levels” value in assay [2] was “significantly suppressed cofilin-1 expression levels”. Also, the inhibition at 5 µM in assay [3] (CCK-8 0.3 and 100 nM 3 min, read-out: inhibition of CCK-8-mediated p42/44 phosphorylation) is 31 to 41%; in assay [3] (TPA 1 µM 5 min, read-out: inhibition of TPA-mediated p42/44 phosphorylation), 27 to 30%.
Consider “COOH-terminal octapeptide of cholecystokinin [CCK-8]”, for which the “effect on PP1 co-immunoprecipitation with cofilin” value in assay [4] is listed as “had no effect”.
